For this test, the system named is C57BL/KsJ-db/db mice. Nature of the test: Blood sugar and triglycerides lowering activity in db/db mice (in vivo). Particulars: for Reduction in Blood Glucose Level (%) / Triglyceride Lowering (%): oral gavage daily, male db/db mice; for Reduction in Blood Glucose Level (%): plasma glucose; for Triglyceride Lowering (%): plasma triglyceride. An excerpt: Mutation in colonies of laboratory animals and different sensitivities to dietary regimens have made the development of animal models with non-insulin dependent diabetes associated with obesity and insulin resistance possible. Genetic models such as db/db and ob/ob (See Diabetes. (1982) 31(1): 1-6) in mice and fa/fa and zucker rats have been developed by the various laboratories for understanding the pathophysiology of disease and testing the efficacy of new antidiabetic compounds (Diabetes, (1983)32: 830-838; Annu. Rep. Sankyo Res. Lab. (1994). 46: 1-57). The homozygous animals, C57 BL/KsJ-db/db mice developed by Jackson Laboratory, US, are obese, hyperglycemic, hyperinsulinemic and insulin resistant (J. Clin. Invest., (1990) 85: 962-967), whereas heterozygous are lean and normoglycemic. In db/db model mouse progressively develops insulinopenia with age, a feature commonly observed in late stages of human type II diabetes when blood sugar levels are insufficiently controlled. The state of pancreas and its course vary according to the models. Since this model resembles that of type II diabetes mellitus, the compounds of the present invention were tested for blood sugar and triglycerides lowering activities.
Male C57BL/KsJ-db/db mice of 8 to 14 weeks age, having body weight range of 35 to 60 grams, procured from the Jackson Laboratory, USA, were used in the experiment. The mice were provided with standard feed (National Institute of Nutrition, Hyderabad, India) and acidified water, ad libitum. The animals having more than 300 mg/dl blood sugar were used for testing. The number of animals in each group was 4.
The random blood sugar ad triglyceride levels were measured by collecting blood (100 µl) through orbital sinus, using heparinized capillary in tubes containing EDTA which was centrifuged to obtain plasma. The plasma glucose and triglyceride levels were measured through spectrometrically, by glucose oxidase and glycerol-3-PO4 oxidase/peroxidase enzyme (Dr. Reddy's Lab. Diagnostic Division Kits, Hyderabad, India) methods respectively. On 6th day the blood samples were collected one hour after administration of test compounds/vehicle for assessing the biological activity.
Test compounds were suspended on 0.25 % carboxymethyl cellulose and administered to test group at a dose of 30 mg to 200 mg/kg through oral gavage daily for 6 to 9 days. The control group received vehicle (dose 10 ml/kg).
The blood sugar and triglycerides lowering activities of the test compound was calculated according to the formula: Blood sugar / triglycerides lowering activity (%) = 1 -(DT/DC)/(TC/ZC)X 100 [formula] • ZC = Zero day control group value • DC = Zero day treated group value • TC = Control group value on test day • DT = Treated group value on the test day

[1] abbreviates: dose 200 mg/kg, treated for nine days.

Molecules are shown by their SMILES.

Turning to `O=C1NC(=O)C(=Cc2ccc(OC3CCN(C(=O)OCc4ccccc4)CC3)cc2)S1` [Example 1, 5-[4-[1(Benzyloxycarbonyl)piperidin-4-yloxy]phenylmethylene]thiazolidine-2,4-dione], the “Reduction in Blood Glucose Level (%)” value is, setting by setting: (dose 30 mg/kg) 47%; (dose 100 mg/kg) 59%; under setting [1], 62%. In addition, the “Triglyceride Lowering (%)” value (dose 100 mg/kg) amounted to 29% and the “Triglyceride Lowering (%)” value under setting [1] is on record as 70%.
For the compound `O=C1NC(=O)C(=Cc2ccc(OCC3CCN(C(=O)OCc4ccccc4)CC3)cc2)S1` [Example 3, 5-[4-[1-(Benzyloxycarbonyl)piperidin-4-ylmethoxy]phenylmethylene] thiazolidine-2,4-dione], under “dose 100 mg/kg”, the “Reduction in Blood Glucose Level (%)” value is 35% and the “Triglyceride Lowering (%)” value is on record as 56%.
As to `O=C1NC(=O)C(=Cc2ccc(OC[C@@H]3CCCN3C(=O)OCc3ccccc3)cc2)S1` [Example 5, 5-[4-[1-(Benzyloxycarbonyl)-(2S)-pyrrolidin-2-ylmethoxy]phenylmethylene]thiazolidine-2,4-dione], under “dose 30 mg/kg”, the “Reduction in Blood Glucose Level (%)” value amounted to 30% and the “Triglyceride Lowering (%)” value amounted to 5%.
For `O=C1NC(=O)C(=Cc2ccc(OC3CCN(C(=O)NCc4ccccc4)CC3)cc2)S1` [Example 10, 5-[4-[1-(Benzylaminocarbonyl)piperidin-4-yloxy]phenylmethylene]thiazolidine-2,4-dione], in that order: 37% and 6%.
Turning to `Cc1c(C)c2c(c(C)c1O)CCC(C)(COc1ccc(CC3SC(=O)NC3=O)cc1)O2` (stereo not drawn) [Troglitazone, reference compound], the “reduction in random blood sugar level” value (100 mg/kg, daily dose, on 6th day, standard drug, db/db mice) was determined as 28%.
